Results taken from patent publication US12435031B2, “Compound with broad-spectrum antibacterial activity and its antibacterial composition” (CHINA AGRICULTURAL UNIVERSITY, priority 2023, dated 2025).
Converted amounts (≈) assume the structure as drawn. Like-named read-outs stand apart in the source and are kept apart here.

Experiments:
[1] = MIC against pathogenic fungi, Candida ATCC 6258; format: cell-based; conditions: Candida albicans ATCC 6258 (Candida krusei ATCC 6258)
[2] = tested on: Aspergillus flavus ATCC 11492; assay: MIC against pathogenic fungi, Aspergillus flavus; format: cell-based
[3] = tested on: Trichophyton ATCC MTA-4439; assay: MIC against pathogenic fungi, Trichophyton; format: cell-based
[4] = tested on: Aspergillus niger ATCC 96918; assay: MIC against pathogenic fungi, Aspergillus niger; format: cell-based; conditions: for MICs: Aspergillus niger ATCC 96918
[5] = tested on: Streptococcus; assay: microbe, parasite or virus in culture; format: cell-based; conditions: for MIC: read-out: MICs
[6] = tested on: MRSA T144; conditions: C57BL/6J mice infected i.p. with MRSA T144, 10 mg/kg b.w. 1 hour after infection, within 3 days
[7] = tested on: Clostridium perfringens; assay: microbe, parasite or virus in culture; format: cell-based; conditions: Clostridium perfringens
[8] = tested on: Staphylococcus aureus ATCC 25923; assay: Growth curve (OD 600 nm, 24 h), Staphylococcus aureus; conditions: Staphylococcus aureus ATCC 25923, BAB159 at its MIC concentration, OD 600 nm over 24 hours
[9] = tested on: Haemophilus; assay: MIC, broth microdilution, Haemophilus; format: cell-based
[10] = tested on: MRSA T144; conditions: BAB159 at its MIC concentration, OD 600 nm over 24 hours
[11] = tested on: Clostridium perfringens; assay: microbe, parasite or virus in culture; format: cell-based; conditions: read-out: MICs
[12] = tested on: MRSA T144; conditions: Galleria mellonella infected with MRSA T144, 2 mg/kg b.w. 1 hour after infection, within 5 days
[13] = tested on: Mycobacterium smegmatis; assay: microbe, parasite or virus in culture; format: cell-based; conditions: Mycolicibacterium smegmatis, read-out: MICs
[14] = tested on: Candida albicans, Aspergillus flavus, Aspergillus niger, and Trichophyton; assay: MIC against common clinical pathogenic fungi (summary); format: cell-based; conditions: range over species
[15] = tested on: Bacillus; assay: microbe, parasite or virus in culture; format: cell-based; conditions: for MIC: read-out: MICs
[16] = tested on: Enterococcus; assay: microbe, parasite or virus in culture; format: cell-based; conditions: for MIC: read-out: MICs
[17] = Pharmacokinetics in rabbit plasma after intramuscular injection; format: in vivo, rabbits; conditions: for Cmax: 20 mg/kg
Protocol: In order to investigate the metabolic residues of BAB159 in model animals, rabbits were used as animal models to quantitatively analyze the levels of BAB159 in rabbit plasma. Male Chinese white rabbits weighing around 2 kg were adaptively fed for one week. Then, 2 mL of BAB159 suspension was injected into the left hind thigh muscle of the rabbits at a dose of 20 mg/kg b.w. Blood samples were collected from the ear vein at 8 time points, including 0.5, 1, 2, 4, 6, 8, 12, and 24 hours after administration. After pre-treatment of the plasma samples, UPLC-MS/MS detection was performed.

[18] = tested on: Staphylococcus; assay: microbe, parasite or virus in culture; format: cell-based; conditions: for MIC: read-out: MICs
[19] = read-out: minimum inhibitory concentration (MIC50)
[20] = male, Chinese white, im, rabbit plasma, intramuscular injection, 20 mg/kg b.w.
[21] = male, Chinese white, rabbit, plasma, im, rabbits, intramuscular injection, 20 mg/kg b.w.

C[C@@H]1[C@H](O)[C@@H](C)/C=C/C=C/C=C/C=C/C=C/C=C/C=C/[C@H](O[C@@H]2O[C@H](C)[C@@H](O)[C@H](N)[C@@H]2O)C[C@@H]2O[C@](O)(C[C@@H](O)C[C@@H](O)[C@H](O)CC[C@@H](O)C[C@@H](O)CC(=O)O[C@H]1C)C[C@H](O)[C@H]2C(=O)O [Amphotericin B]
MICs [1]: 0.5 µg/mL | MICs [2]: 0.25 µg/mL | MICs ([3]; Trichophyton ATCC MTA-4439): 0.25 µg/mL | MICs [4]: 0.125 µg/mL

O=C(Nc1ccc(C(F)(F)F)c(Cl)c1Cl)c1cc(Cl)ccc1O [BAB159]
MIC ([1]; ATCC6258): 1 µg/mL (≈ 2.6 µM) | MIC [5]: 0.125 µg/mL (≈ 0.325 µM) | MIC50 [5, 19]: 0.125 µg/mL (≈ 0.325 µM) | protective rate [6]: 100% | MIC50 [7]: 0.25 µg/mL (≈ 0.65 µM) | MIC90 [7]: 0.5 µg/mL (≈ 1.3 µM) | MIC ([7]; read-out: MIC value against Clostridium perfringens, strain A3-1 (A-type)): 0.5 µg/mL (≈ 1.3 µM) | MIC ([7]; read-out: MIC value against Clostridium perfringens, strain A3-2 (A-type)): 0.25 µg/mL (≈ 0.65 µM) | MIC ([7]; read-out: MIC value against Clostridium perfringens, strain A57-1 (A-type)): 0.25 µg/mL (≈ 0.65 µM) | MIC ([7]; read-out: MIC value against Clostridium perfringens, strain B4 (B-type)): 0.5 µg/mL (≈ 1.3 µM) | MIC ([7]; read-out: MIC value against Clostridium perfringens, strain B5 (B-type)): 0.25 µg/mL (≈ 0.65 µM) | MIC ([7]; read-out: MIC value against Clostridium perfringens, strain C3 (C-type)): 0.5 µg/mL (≈ 1.3 µM) | MIC ([7]; read-out: MIC value against Clostridium perfringens, strain C8 (C-type)): 0.25 µg/mL (≈ 0.65 µM) | MIC ([7]; read-out: MIC value against Clostridium perfringens, strain C59-1 (C-type)): 0.25 µg/mL (≈ 0.65 µM) | MIC ([7]; read-out: MIC value against Clostridium perfringens, strain D14B (D-type)): 0.25 µg/mL (≈ 0.65 µM) | MIC ([7]; read-out: MIC value against Clostridium perfringens, strain F5-2 (F-type)): 0.25 µg/mL (≈ 0.65 µM) | MIC ([7]; read-out: MIC value against Clostridium perfringens, strain F6-1 (F-type)): 0.25 µg/mL (≈ 0.65 µM) | MIC ([7]; read-out: MIC value against Clostridium perfringens, strain F6-2 (F-type)): 0.5 µg/mL (≈ 1.3 µM) | MIC ([7]; read-out: MIC value against Clostridium perfringens, strain F6-2-1 (F-type)): 0.5 µg/mL (≈ 1.3 µM) | MIC ([7]; read-out: MIC value against Clostridium perfringens, strain F6-2-2 (F-type)): 0.25 µg/mL (≈ 0.65 µM) | MIC ([7]; read-out: MIC value against Clostridium perfringens, strain F7-1 (F-type)): 0.5 µg/mL (≈ 1.3 µM) | MIC ([7]; read-out: MIC value against Clostridium perfringens, strain F8-1 (F-type)): 0.5 µg/mL (≈ 1.3 µM) | MIC ([7]; read-out: MIC value against Clostridium perfringens, strain H12-1 (H-type)): 0.25 µg/mL (≈ 0.65 µM) | MIC ([7]; read-out: MIC value against Clostridium perfringens, strain H12-2 (H-type)): 0.25 µg/mL (≈ 0.65 µM) | MIC ([7]; read-out: MIC value against Clostridium perfringens, strain H13-1 (H-type)): 0.5 µg/mL (≈ 1.3 µM) | MIC ([7]; read-out: MIC value against Clostridium perfringens, strain H14-1 (H-type)): 0.5 µg/mL (≈ 1.3 µM) | MIC ([7]; read-out: MIC value against Clostridium perfringens, strain H14-2 (H-type)): 0.5 µg/mL (≈ 1.3 µM) | MIC ([7]; read-out: MIC value against Clostridium perfringens, strain H14-4 (H-type)): 0.5 µg/mL (≈ 1.3 µM) | MIC ([7]; read-out: MIC value against Clostridium perfringens, strain H15-1 (H-type)): 0.25 µg/mL (≈ 0.65 µM) | MIC ([7]; read-out: MIC value against Clostridium perfringens, strain H15-2 (H-type)): 0.5 µg/mL (≈ 1.3 µM) | MIC ([7]; read-out: MIC value against Clostridium perfringens, strain H15-3 (H-type)): 0.25 µg/mL (≈ 0.65 µM) | MIC ([7]; read-out: MIC value against Clostridium perfringens, strain H16 (H-type)): 0.25 µg/mL (≈ 0.65 µM) | MIC ([7]; read-out: highest MIC value, against 26 tested strains of Clostridium perfringens): 0.5 µg/mL (≈ 1.3 µM) | growth inhibition (growth curve) [8]: significantly inhibit the growth | MIC50 ([9]; Haemophilus, read-out: minimum inhibitory concentration (MIC50)): 16 µg/mL (≈ 41.6 µM) | MIC ([9]; gram-negative bacteria such as Haemophilus): 8 to 32 µg/mL (≈ 20.8 to 83.2 µM) | MIC ([2]; ATCC11492): 1 µg/mL (≈ 2.6 µM) | growth inhibition (growth curve) [10]: significantly inhibit the growth | MIC [11]: 0.25 µg/mL (≈ 0.65 µM) | protective rate [12]: 70% | MIC ([3]; Trichophyton, read-out: MICs): 0.125 µg/mL (≈ 0.325 µM) | MIC [13]: 2 µg/mL (≈ 5.2 µM) | MICs [4]: 0.5 µg/mL | MIC ([4]; Aspergillus niger, ATCC96918, Aspergillus niger ATCC 96918): 0.25 µg/mL (≈ 0.65 µM) | MIC [14]: 0.5 to 1 µg/mL (≈ 1.3 to 2.6 µM) | MIC [15]: 0.01 µg/mL (≈ 0.026 µM) | MIC50 [15, 19]: 0.01 µg/mL (≈ 0.026 µM) | MIC [16]: 0.25 µg/mL (≈ 0.65 µM) | MIC50 [16, 19]: 0.25 µg/mL (≈ 0.65 µM) | AUIC ([17]; AUC after intramuscular injection in rabbits to MIC50 against Staphylococcus): 109 | AUC [17, 20]: 1710 ng·h/mL | Tmax [17, 20]: 6 h | Cmax ([17]; male, Chinese white, rabbit, plasma, im, rabbit plasma, intramuscular injection, 20 mg/kg b.w., read-out: Cmax): 207 ng/mL | AUC(0-t) [17, 21]: 1640 ± 70.5 ng·h/mL | half-life [17, 21]: 16.1 ± 3.6 h | Cmax ([17]; rabbit plasma, intramuscular injection, 20 mg/kg b.w.): 148.2 ± 13.05 ng/mL | MIC50 ([18]; Staphylococcus): 0.0156 µg/mL (≈ 0.0406 µM) | MIC ([18]; Staphylococcus): 0.01 µg/mL (≈ 0.026 µM) | MIC50 [18, 19]: 0.01 µg/mL (≈ 0.026 µM)

CN[C@H](CC(C)C)C(=O)N[C@H]1C(=O)N[C@@H](CC(N)=O)C(=O)N[C@H]2C(=O)N[C@H]3C(=O)N[C@H](C(=O)N[C@H](C(=O)O)c4cc(O)cc(O)c4-c4cc3ccc4O)[C@H](O)c3ccc(c(Cl)c3)Oc3cc2cc(c3O[C@@H]2O[C@H](CO)[C@@H](O)[C@H](O)[C@H]2O[C@H]2C[C@](C)(N)[C@H](O)[C@H](C)O2)Oc2ccc(cc2Cl)[C@H]1O [VAN, Vancomycin]
MIC [5]: 0.25 µg/mL (≈ 0.173 µM) | MIC ([7]; read-out: MIC value against Clostridium perfringens): ≤ 0.25 µg/mL | MIC [11]: 0.5 µg/mL (≈ 0.345 µM) | protective rate [12]: 40% | MIC [13]: 16 µg/mL (≈ 11 µM) | MIC [15]: 0.5 µg/mL (≈ 0.345 µM) | MIC ([18]; Staphylococcus): 1 µg/mL (≈ 0.69 µM)

CC(=O)NC[C@H]1CN(c2ccc(N3CCOCC3)c(F)c2)C(=O)O1 [linezolid]
MIC [16]: 1 µg/mL (≈ 2.96 µM)
